Data as given in patent US12539284B2, “Aminoxy acid-based anti-cancer stem cell compounds and methods thereof” (Westlake University, priority 2019, dated 2026).
Entries after “also recorded” stand apart in the source; their conditions may differ. Where two headings read alike, the source gives them in different places.

What was measured:
SKOV3 CSCs (SKOV3 SP) = assay: Cell viability (CellTiter-Glo) on SKOV3 spheres (CSCs); type: cell-based, human; details: read-out: IC50 Cancer Stem Cell SKOV3 SP
Method: (§1) Cell Cultures Human ovarian carcinoma cell lines HEY A8 and SKOV3 were gifts from Professor Alice Wong's group (The University of Hong Kong). Cells were grown in Dulbecco's Modified Eagle (DMEM) medium supplemented with 10% FBS and 1% penicillin/streptomycin at 37° C. in a humidified atmosphere containing […] CO2. Isolation and culture of spheres were performed in serum-free stem-cell-selective condition as described in literature Ip etl. Oncogene 2014, 5, 9133-9149. Briefly, 1-2 weeks after plating, non-adherent spherical clusters of cells could be observed and were separated from single cells by low speed centrifugation. After 8th to 10th passages, the non-adherent spherical clusters of cells appeared as distinct spheres. Using this selection condition, HEY A8 spheres (HEY A8 SP) or SKOV3 spheres (SKOV3 SP) could be enzymatically dissociated and reformed into spheres within 3 days under stem-cell-selective condition. To allow differentiation, dissociated sphere cells were plated on tissue culture plates in medium (MCDB 105:M199=1:1) supplemented with 10% FBS and 1% PS.
HEY A8 SP cells or SKOV3 SP cells (5×10^4) were plated in triplicate in 10 mL serum-free MCDB105 medium in 100-mm Petri dish for 7 days to form spheres. […] After that, the reagent was transferred into 96-well plates and cell viability was measured using a microplate reader (SpectraMax 340PC 384, Molecular Devices).

SKOV3 cancer cells = assay: Cell viability (CellTiter-Glo) on adherent SKOV3 cancer cells; type: cell-based, human
Method: as §1
HEY A8 or SKOV3 cancer Cells were plated in triplicate in 0.1 mL full medium in 96-well plates for 24 h. After that, the medium was changed to the fresh prepared medium with various concentrations of compounds. Cells were incubated for another 48 h. Then the cell viability was measured by CellTiter-Glo® Luminescent Cell Viability reagent according to the manufacture's instruction. The luminescence at 550 nm was measured using a microplate reader (SpectraMax 340PC 384, Molecular Devices).

HEY A8 cells = assay: Population of CD133+ cells by flow cytometry (PE-conjugated CD133 antibody); type: cell-based, human; details: 15 μM; for population of CD133+ cells after treatment: control 21.8%
Method: CD133 has been reported to be a marker of ovarian CSCs. After cells treated with synthetic molecule, the population of CD133^+ cells were measured. HEY A8 cells were treated with taxol (100 nM), compound sff-2-112 (“Example 1”) or sff-2-132 (“Example 4”) at the concentration of 15 μM. Medium containing 0.1% DMSO was used as a negative control.
A suspension of HEY A8 cells at the concentration of 2.5×10^4 cells/mL in DMEM medium were seeded into 60-mm cell culture dishes. Cells were incubated at 37° C. in a humidified atmosphere containing 5% CO2 for 24 h, followed by the addition of 4 mL fresh medium or medium containing Paclitaxel (100 nM), sff-2-112 (15 μM) or compound sff-2-132 (15 μM). Medium containing 0.1% DMSO was used as a negative control. After 3 days, the medium was removed and cells were washed with cold PBS twice, and then stained with PE-conjugated CD133 antibody according to the manufacture's instruction. The fluorescence was analyzed by flow cytometry.

NIH3T3 = assay: Toxicity against normal cell line NIH3T3; type: cell-based
Source text: (§2) Fourteen compounds including aminoxy acid monomers and dipeptides have been identified to show toxicity against HEY A8 CSCs. The half maximal inhibitory concentration (IC50) values of compounds sff-2-112, sff-2-124, sff-2-132 and sff-2-100 towards adherent cancer HEY A8, SKOV3 cells and CSCs were further determined. […] Especially compound sff-2-132, its selectivity to CSCs is up to 60-fold higher than that to cancer cells. Their toxicity against other normal cell lines NIH3T3, HEK293 and MDCK were also tested and the IC50 values were summarized in Table 1.

HEY A8 cancer cells = assay: Apoptosis, Annexin V / PI flow cytometry, cancer cells; type: cell-based, human; details: 30 μM, 2 days
Method: A suspension of HEY A8 cells at the concentration of 5×10^4 cells/mL in DMEM medium were seeded into 60-mm cell culture dishes. Cells were incubated at 37° C. in a humidified atmosphere containing 5% CO2 for 24 h followed by the addition of 4 mL fresh medium or medium containing compound sff-2-112 (“Example 1”) or sff-2-132 (“Example 4”) at different concentration. […] After 2 days, the medium was aspirated and cells were washed with cold PBS twice, and then stained with PI and Annexin V according to the manufacture's instruction (Dead Cell Apoptosis Kit with Annexin V Alexa Fluor™ 488 & Propidium Iodide, Thermo Fisher). Cells were analyzed by flow cytometry (BD FACS CantoII Analyzer).

HEK293 = assay: Toxicity against normal cell line HEK293; type: cell-based
Source text: as §2

HEY A8 CSCs (HEY A8 SP) = assay: Toxicity / cell viability (CellTiter-Glo) on HEY A8 spheres (CSCs); type: cell-based, human; details: for rank of toxicity among the 14 molecules on HEY A8 CSCs: 5 μM; for rank of toxicity among the 14 molecules on HEY A8 CSCs / cell viability of HEY A8 CSCs (toxicity): 48 h; for IC50: HEY A8 spheres, 48 h incubation, read-out: IC50 Cancer Stem Cell HeyA8 SP; for cell viability of HEY A8 CSCs (toxicity): compound 5 μM; for selectivity towards ovarian CSCs over ovarian cancer cells and normal cells: from IC50 values, FIG. 4 and Table 1
Method: Aminoxy acids were synthesized by the standard peptide coupling procedures. The CSCs are obtained by spheroids culturing under suspension condition. It is confirmed that these spheres indeed contain significant higher population of cells with CD133 antigenic phenotype, which has been reported can represent ovarian CSCs (FIG. 2). After treatment with compounds for 48 h, the cell viability of CSCs was measured by using CELLTITER-GLO® luminescent reagent. Compound sff-3-85 (“Example 2”) were used at the dose of 10 μM, all the other compounds were used at the concentration of 5 μM. All experiments were performed three times and data is presented as mean±SD.
as §1
(§3) HEY A8 SP cells (5×10^4) were plated in triplicate in 10 mL serum-free MCDB105 medium in 100-mm Petri dish for 7 days to form spheres. Compound at the final concentration of 5 μM was added. The cells were further incubated at 37° C. for 48 h. After that cells were collected by centrifugation and the medium was removed. Then 100 μL CellTiter-Glo® Luminescent Cell Viability reagent was added into each tube, which was incubated for 10 min with shaking. After that, the reagent was transferred into 96-well plates and cell viability was measured using a microplate reader (SpectraMax 340PC 384, Molecular Devices).
as §3, with “A8 SP cells or SKOV3” for “A8”, “Then drugs” for “Compound”, “different” for “the final”, “were” for “of 5 μM was”, “μL of” for “μL”

[1] = Homo sapiens, SK-OV-3, 48 h incubation

Row | Compound | IC50 (SKOV3 CSCs (SKOV3 SP); 48 h incubation) | IC50 (SKOV3 cancer cells; 48 h incubation) | population of CD133+ cells relative to DMSO treated group (HEY A8 cells) | population of CD133+ cells after treatment (HEY A8 cells; 3 days) | IC50 (NIH3T3) | Annexin V positive cells, cancer cells (HEY A8 cancer cells) | IC50 (HEK293) | rank of toxicity among the 14 molecules on HEY A8 CSCs (HEY A8 CSCs (HEY A8 SP)) | IC50 (HEY A8 CSCs (HEY A8 SP)) | cell viability of HEY A8 CSCs (toxicity) (HEY A8 CSCs (HEY A8 SP)) | selectivity towards ovarian CSCs over ovarian cancer cells and normal cells (HEY A8 CSCs (HEY A8 SP)) | IC50 (SKOV3 CSCs (SKOV3 SP); [1]) | IC50 (SKOV3 cancer cells; [1]) | decrease of CD133+ population (HEY A8 cells; 3 days, from 21.8%) | IC50 (NIH3T3; Mus musculus, NIH3T3) | IC50 (HEK293; Homo sapiens, HEK293) | IC50 (HEY A8 CSCs (HEY A8 SP); Homo sapiens) | selectivity to CSCs over cancer cells (HEY A8 CSCs (HEY A8 SP); ovarian CSCs vs adherent cancer cells (and normal cells))
1 | O=C(NO[C@H](COCc1ccccc1)C(=O)Nc1ccccc1)c1cc(C(F)(F)F)cc(C(F)(F)F)c1 [sff-2-112] | 0.9 ± 0.9 µM | 42.1 ± 5.2 µM | significantly reduced the population of CD133^+ cells | 12.6% | 30.5 ± 1.1 µM | 8.21% | 51 ± 1 µM | highest toxicity | 1.5 ± 1.3 µM | significantly decreased the cell viability | selectively induce the death of ovarian CSCs | – | – | – | – | – | – | –
2 | CC(C)(C)OC(=O)[C@@H](COCc1ccccc1)ONC(=O)c1cc(C(F)(F)F)cc(C(F)(F)F)c1 [sff-2-132] | – | – | significantly reduced the population of CD133^+ cells | 1.9% | – | 1.30% | – | highest toxicity | – | significantly decreased the cell viability | best selectivity; also recorded: selectively induce the death of ovarian CSCs | 1 ± 0.9 µM | 63.4 ± 8.9 µM | around 10 fold | 58 ± 2.2 µM | 70.3 ± 1.7 µM | 1 ± 0.9 µM | up to 60 fold
